Legend:
[1] = test system: A549 lung adenocarcinoma; assay: Cell viability, MTT assay, A549; type: cell-based, human; details: 72 h, mean ± SD
Description: (§1) Five human cell lines (A375 melanoma, A549 lung adenocarcinoma, HCT116 and HT29 colorectal carcinoma, MDA-MB-231 triple-negative breast adenocarcinoma) were used to study the antitumor effects of the di-tert-butylphenols and their respective carborane analogs. All selected cell lines were derived from inflammation-associated tumors.
(§2) After the incubation period, the supernatant was discarded from the wells, and the cells were washed two times with 200 µL of PBS. Next, MTT solution at a final concentration of 0.5 mg/mL was added and incubated at 37 °C until purple formazan crystals were formed (30 min to one hour). After incubation, the dye was discarded. In order to dissolve the formed formazan crystals DMSO was added, and the absorbance was measured at λmax = 540 nm, with the reference/background wavelength of 670 nm. All results are expressed as a percentage of the control value which was arbitrary set to 100%. After 72 h treatment, cells were washed with 200 µL of PBS and fixed with 4% paraformaldehyde (PFA) for 15 min at room temperature (RT). Next, cells were stained with 1% CV solution. After 20 min, cells were washed in tap water and dried on air. Dye was dissolved in 33% acetic acid and the absorbance was measured at λmax = 540 nm, with the reference/background wavelength of 670 nm. Results were expressed as a percentage of the control value which was arbitrary set to 100%.
(§3) 1. General methods, materials, and procedures
(§4) 1.1.1. Reagents and cells
(§5) Reagents and cells were obtained from following manufacturers: Capricorn Scientific GmbH (Hessen, Germany) – Culture medium RPMI-1640, Dulbecco's Modified Eagle Medium (DMEM), and fetal bovine serum (FBS). Serva (Heidelberg, Germany) – Paraformaldehyde (PFA). Sigma (St. Louis, MO, USA) – Ethylenediaminetetraacetic acid (EDTA), Dimethyl sulfoxide (DMSO), chloroquine, CV, Triton X-100, RNase, PI, PBS, 3-MA, CFSE, and fluorescent mounting medium. AppliChem (MO, USA) –MTT. Thermo Fisher Scientific (Waltham, MA, USA) – DHR. R&D Systems (Minneapolis, MN, USA) – ApoStat. BD (Pharmingen, San Diego, SAD) – Annexin V-FITC (AnnV). Biological Industries (Cromwell, CT, USA) – Penicillin Streptomycin solution. American Type Culture Collection (ATCC, Manassas, Virginia, USA) – Human lung carcinoma (A549), human breast adenocarcinoma (MDA-MB-231), human colorectal ade-nocarcinoma (HT-29), human colorectal carcinoma (HCT116) and human melanoma (A375).
(§6) Cell lines (A375, HCT116, HT-29 and MDA-MB-231) were cultivated in HEPES-buffered RPMI-1640 medium while A549 cell line was cultivated in Dulbecco's Modified Eagle Medium (DMEM) which were previously supplemented with 10% heat-inactivated FBS, penicillin (100 units/mL), and streptomycin (100 μg/mL). All cells were kept at 37 °C in a humidified atmosphere with 5% CO2. For viability determi-nation cells were seeded at following densities in 96-well plates: 4 x 10^3 cells/well (A375, HT-29 and MDA-MB-231), 5 x 10^3 cells/well (HCT116), and 3 x 10^3 cells/well (A549). […]
(§7) Afterwards, cells were washed with phosphate-buffered saline (PBS) and stained with AnnV (15 μg/mL) and PI (15 μg/mL). After 15 min incubation at room temperature (RT) protected from light the cells were resuspended in AnnV-binding buffer and analysed using flow cytom-etry. HCT116 cells were incubated with pan-caspase inhibitor Apostat for 30 min at 37 °C to determine whether detected apoptosis was mediated by caspase activation. Afterwards, cells were washed with PBS and analyzed using flow cytometry. HCT116 cells were stained with 1 µg/mL of AO solution for 15 min at 37 °C to detect the presence of autophagic cell death. Afterwards cells were washed with PBS, resuspended and analyzed by flow cytometry (CyFlow® Space Partec using the PartecFloMax® software

[2] = test system: HT-29 colorectal carcinoma; assay: Cell viability, MTT assay, HT-29; type: cell-based, human; details: 72 h, mean ± SD
Description: as §1, §2, §3, §4, §5, §6, §7

[3] = test system: MDA-MB-231 triple-negative breast adenocarcinoma; assay: Cell viability, MTT assay, MDA-MB-231; type: cell-based, human; details: 72 h, mean ± SD
Description: as §1, §2, §3, §4, §5, §6, §7

[4] = Lipophilicity logD7.4 by HPLC; details: pH 7.4, HPLC method
[5] = target: T1, 5-LO (Homo sapiens, UniProt P09917); assay: 5-LO product formation in intact PMNL; details: read-out: IC50 inhibition of 5-LO product formation in intact PMNL; intact PMNL, A23187 + arachidonic acid, mean of at least three experiments
T1 sequence (P09917 1-674): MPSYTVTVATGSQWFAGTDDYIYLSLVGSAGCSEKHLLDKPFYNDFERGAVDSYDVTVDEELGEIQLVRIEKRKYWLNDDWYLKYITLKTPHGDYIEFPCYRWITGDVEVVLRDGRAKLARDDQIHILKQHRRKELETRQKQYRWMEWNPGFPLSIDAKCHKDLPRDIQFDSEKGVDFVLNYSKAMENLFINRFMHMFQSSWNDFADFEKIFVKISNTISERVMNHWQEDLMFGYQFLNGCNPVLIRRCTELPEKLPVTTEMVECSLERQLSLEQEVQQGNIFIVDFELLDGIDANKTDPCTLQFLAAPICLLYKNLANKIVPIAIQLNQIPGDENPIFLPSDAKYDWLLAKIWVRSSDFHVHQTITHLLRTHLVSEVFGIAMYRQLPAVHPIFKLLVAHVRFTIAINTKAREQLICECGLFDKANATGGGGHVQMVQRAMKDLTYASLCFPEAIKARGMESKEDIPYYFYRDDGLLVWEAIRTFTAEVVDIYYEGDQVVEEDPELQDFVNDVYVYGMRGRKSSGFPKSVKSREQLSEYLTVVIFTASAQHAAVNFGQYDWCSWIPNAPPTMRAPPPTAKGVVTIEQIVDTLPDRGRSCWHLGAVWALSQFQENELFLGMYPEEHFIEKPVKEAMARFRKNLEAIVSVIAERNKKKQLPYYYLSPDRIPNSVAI
Description: After 10 min at 37 °C, the reaction was stopped by addition of ice-cold methanol (1 mL). HCl (30 μL, 1 M), prostaglandin B1 (200 ng) and PBS (500 μL) were added and the formed metabolites were extracted and analyzed by HPLC as described previously [96].

Substance | IC50 [1] [µM] | IC50 [2] [µM] | IC50 [3] [µM] | logD7.4, HPLC [4] | IC50 [5] [µM]
(3E)-1-Hydroxy-12-(methylene-[2′-ethylisothiazolidine-1′,1′-dioxide])-1,12-dicarba-closo-dodecaborane(12) [Compound S-2474-Cb] | 122 ± 10.4 | 81.8 ± 6.1 | > 200 | 1.88 | < 0.03
1-Hydroxy-12-(thiophen-2′-carbonyl)-1,12-dicarba-closo-dodecaborane(12) [Compound R-830-Cb] | 66.5 ± 1.7 | 65.6 ± 5.3 | 46.5 ± 0.1 | 2.37 | 0.65
(3E)-1-Hydroxy-12-(methylene-[1′-methoxypyrrolidine-2′-one])-1,12-dicarba-closo-dodecaborane(12) [Compound E-5110-Cb] | 177 ± 14.5 | 120 ± 9.7 | – | 1.50 | 0.22
(3E)-1-Hydroxy-12-(methylene-[dihydrofurane-2′(3H)-one])-1,12-dicarba-closo-dodecaborane(12) [KME-4-Cb] | 120 ± 7 | 139 ± 5.4 | 120 ± 3.9 | 1.87 | 0.07
